Test results from patent US20260224582A1, “Heterobicyclic amides as inhibitors of CD38” (Cerevance, Inc., priority 2022, published 2026).

Columns and labels:
Recombinant mouse CD38 = target: T1, Recombinant mouse CD38 (Mus musculus, UniProt P56528); assay: Mouse CD38 hydrolase assay (fluorescence-based, ε-NAD substrate); type: biochemical; conditions: recombinant mouse CD38 0.4 nM, 12 μM ε-NAD, 30 min preincubation at 25° C.
T1 sequence (P56528 1-304): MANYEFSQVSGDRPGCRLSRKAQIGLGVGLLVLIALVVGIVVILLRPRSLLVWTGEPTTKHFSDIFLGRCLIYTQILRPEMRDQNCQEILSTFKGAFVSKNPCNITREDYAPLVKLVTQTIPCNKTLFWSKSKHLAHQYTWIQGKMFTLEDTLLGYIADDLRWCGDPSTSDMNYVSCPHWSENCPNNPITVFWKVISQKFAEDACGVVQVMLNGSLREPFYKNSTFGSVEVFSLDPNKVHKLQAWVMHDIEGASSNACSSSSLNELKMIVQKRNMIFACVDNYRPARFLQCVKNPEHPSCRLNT
Description: The ability of test compounds to inhibit mouse CD38 hydrolase activity was measured in a fluorescence-based assay using non-physiological NAD^+ substrate analogue 1,N^6-etheno NAD^+ (&-NAD). Recombinant mouse CD38 (0.4 nM) was preincubated with test compounds in 384-well black microplates for 30 min at 25° C. in PBS (—Ca^2+/Mg^2+) containing 0.005% BSA (pH 7.4). CD38 hydrolase activity was initiated by addition of 12 μM ε-NAD, which yields the fluorescent product 1,N^6-etheno ADP-ribose. Formation of fluorescent product was followed using ClarioStar Plus (BMG) microplate reader by reading fluorescence (excitation λ=300 nm; emission λ=410 nm) at two time points, one immediately after substrate addition (t=0) and one at 6 min (t=6).
Data was analysed by subtracting the values detected at t=0 from t=6 to correct for variation in baseline fluorescence. Fluorescence values were converted to percent inhibition using the average of high signal (CD38 and ε-NAD) and low signal (CD38 and ε-NAD in the presence of a tool CD38 inhibitor) control wells. IC50 values were determined from a 10-point, halflog concentration response curve with a four-parameter logistic equation.

Recombinant human CD38 = target: T2, Recombinant human CD38 (Homo sapiens, UniProt P28907); assay: Human CD38 hydrolase assay (fluorescence-based, ε-NAD substrate); type: biochemical; conditions: recombinant human CD38 0.8 nM, 4 μM ε-NAD, 30 min preincubation at 25° C.
T2 sequence (P28907 1-300): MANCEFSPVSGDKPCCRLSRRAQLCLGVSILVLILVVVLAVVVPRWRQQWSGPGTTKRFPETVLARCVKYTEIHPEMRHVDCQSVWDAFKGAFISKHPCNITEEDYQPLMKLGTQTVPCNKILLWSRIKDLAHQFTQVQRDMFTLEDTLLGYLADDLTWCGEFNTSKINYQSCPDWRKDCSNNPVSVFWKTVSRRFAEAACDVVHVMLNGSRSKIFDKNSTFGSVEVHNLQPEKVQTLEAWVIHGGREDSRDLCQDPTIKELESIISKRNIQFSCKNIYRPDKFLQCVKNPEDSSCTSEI
Description: The ability of test compounds to inhibit human CD38 hydrolase activity was measured in a fluorescence-based assay using non-physiological NAD^+ substrate analogue 1,N^6-etheno NAD^+ (ε-NAD). Recombinant human CD38 (0.8 nM) was preincubated with test compounds in 384-well black microplates for 30 min at 25° C. in PBS (—Ca^2+/Mg^2+) containing 0.005% BSA (pH 7.4). CD38 hydrolase activity was initiated by addition of 4 μM ε-NAD, which yields the fluorescent product 1,N^6-etheno ADP-ribose. Formation of fluorescent product was followed using ClarioStar Plus (BMG) microplate reader by reading fluorescence (excitation λ=300 nm; emission λ=410 nm) at two time points, one immediately after substrate addition (t=0) and one at 10 min (t=10). Data was analysed by subtracting the values detected at t=0 from t=10 to correct for variation in baseline fluorescence. Fluorescence values were converted to percent inhibition using the average of high signal (CD38 and ε-NAD) and low signal (CD38 and ε-NAD in the presence of a tool CD38 inhibitor) control wells. IC50 values were determined from a 10-point, half log concentration response curve with a four-parameter logistic equation.

Structure (SMILES) | IC50 (Recombinant mouse CD38) | IC50 (Recombinant human CD38)
O=C(N[C@H]1CC[C@H](NCC(F)F)CC1)c1cn2nccc2c(-n2ccnc2)n1 [Example 37, N-((1r,4r)-4-((2,2-difluoroethyl)amino)cyclohexyl)-4-(1H-imidazol-1-yl)pyrazolo[1,5-a]pyrazine-6-carboxamide] | ≤ 40 nM | ≤ 100 nM
O=C(NC1CCOCC1)c1nc(-n2ccnc2)cc2nccn12 [Example 1, 7-(1H-imidazol-1-yl)-N-(tetrahydro-2H-pyran-4-yl) imidazo[1,2-c]pyrimidine-5-carboxamide] | ≤ 40 nM | ≤ 100 nM
O=C(N[C@H]1CC[C@H](N2CC[C@H](F)C2)CC1)c1cn2cccc2c(-n2ccnc2)n1 [Example 22, N-((1S,4r)-4-((S)-3-fluoropyrrolidin-1-yl)cyclohexyl)-1-(1H-imidazol-1-yl)pyrrolo[1,2-a]pyrazine-3-carboxamide] | ≤ 40 nM | ≤ 1000 nM
